Reference: patent publication US10231954B2, “Neurodegenerative therapies” (LYTIX BIOPHARMA AS, priority 2014, dated 2019)
Where two headings read alike, the source gives them in different places.

Columns and labels:
Format in all cases: biochemical
CDK9-Cyclin T1 = CDK9-Cyclin T1 (Homo sapiens, UniProt P50750); experiment: Kinase profiling CDK9-Cyclin T1; conditions: for remaining activity at 100 µM: read-out: residual kinase activity, CDK9-Cyclin T1
Excerpt: (§1) Any value less that 25 is considered to be highly significant inhibition.

FGF-R1 = FGF-R1 (Homo sapiens, UniProt P11362); experiment: Kinase profiling FGF-R1; conditions: for remaining activity at 100 µM: read-out: residual kinase activity, FGF-R1
Excerpt: as §1

IKKe = target: T1, IKKe (Homo sapiens, UniProt Q14164); experiment: Kinase profiling IKKe; conditions: for remaining activity at 100 µM: read-out: residual kinase activity, IKKe
T1 sequence (Q14164 1-716): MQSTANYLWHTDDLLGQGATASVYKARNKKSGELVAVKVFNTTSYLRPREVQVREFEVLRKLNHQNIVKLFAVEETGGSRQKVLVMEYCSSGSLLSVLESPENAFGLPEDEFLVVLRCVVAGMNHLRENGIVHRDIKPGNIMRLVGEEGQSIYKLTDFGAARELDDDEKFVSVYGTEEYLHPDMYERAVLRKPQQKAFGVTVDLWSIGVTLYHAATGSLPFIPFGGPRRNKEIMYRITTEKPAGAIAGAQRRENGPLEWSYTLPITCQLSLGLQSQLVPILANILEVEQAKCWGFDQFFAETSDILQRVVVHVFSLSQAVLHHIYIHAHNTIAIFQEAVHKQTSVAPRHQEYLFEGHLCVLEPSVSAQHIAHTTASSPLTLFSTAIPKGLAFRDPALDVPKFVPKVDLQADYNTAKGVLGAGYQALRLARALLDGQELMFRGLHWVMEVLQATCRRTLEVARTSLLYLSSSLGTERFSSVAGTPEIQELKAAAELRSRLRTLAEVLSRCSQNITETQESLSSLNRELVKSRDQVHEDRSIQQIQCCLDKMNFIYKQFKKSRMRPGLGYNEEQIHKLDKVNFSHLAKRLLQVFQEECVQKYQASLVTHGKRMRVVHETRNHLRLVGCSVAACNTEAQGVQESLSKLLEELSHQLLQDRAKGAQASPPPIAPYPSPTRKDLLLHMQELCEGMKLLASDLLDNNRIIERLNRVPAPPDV
Excerpt: as §1

IRR = IRR (Homo sapiens, UniProt P14616); experiment: Kinase profiling IRR; conditions: for remaining activity at 100 µM: read-out: residual kinase activity, IRR
Excerpt: as §1

BRK = BRK (Homo sapiens, UniProt Q13882); experiment: Kinase profiling BRK; conditions: for remaining activity at 100 µM: read-out: residual kinase activity, BRK
Excerpt: as §1

SIK2 = SIK2 (Homo sapiens, UniProt Q9H0K1); experiment: Kinase profiling SIK2; conditions: for remaining activity at 100 µM: read-out: residual kinase activity, SIK2
Excerpt: as §1

MNK2 = MNK2 (Homo sapiens, UniProt Q9HBH9); experiment: Kinase profiling MNK2; conditions: for remaining activity at 100 µM: read-out: residual kinase activity, MNK2
Excerpt: as §1

MINK1 = MINK1 (Homo sapiens, UniProt Q8N4C8); experiment: Kinase profiling MINK1; conditions: for remaining activity at 100 µM: read-out: residual kinase activity, MINK1
Excerpt: as §1

TESK1 = TESK1 (Homo sapiens, UniProt Q15569); experiment: Kinase profiling TESK1; conditions: for remaining activity at 100 µM: read-out: residual kinase activity, TESK1
Excerpt: as §1

OSR1 = OSR1 (Homo sapiens, UniProt O95747); experiment: Kinase profiling OSR1; conditions: for remaining activity at 100 µM: read-out: residual kinase activity, OSR1
Excerpt: as §1

HIPK1 = HIPK1 (Homo sapiens, UniProt Q86Z02); experiment: Kinase profiling HIPK1; conditions: for remaining activity at 100 µM: read-out: residual kinase activity, HIPK1
Excerpt: as §1

PAK6 = PAK6 (Homo sapiens, UniProt Q9NQU5); experiment: Kinase profiling PAK6; conditions: for remaining activity at 100 µM: read-out: residual kinase activity, PAK6
Excerpt: as §1

AMPK = experiment: Kinase profiling AMPK
Excerpt: as §1

MPSK1 = MPSK1 (Homo sapiens, UniProt O75716); experiment: Kinase profiling MPSK1; conditions: for remaining activity at 100 µM: read-out: residual kinase activity, MPSK1
Excerpt: as §1

PAK2 = PAK2 (Homo sapiens, UniProt Q13177); experiment: Kinase profiling PAK2; conditions: for remaining activity at 100 µM: read-out: residual kinase activity, PAK2
Excerpt: as §1

MAP4K3 = target: T2, MAP4K3 (Homo sapiens, UniProt Q8IVH8); experiment: Kinase profiling MAP4K3; conditions: for remaining activity at 100 µM: read-out: residual kinase activity, MAP4K3
T2 sequence (Q8IVH8 1-894): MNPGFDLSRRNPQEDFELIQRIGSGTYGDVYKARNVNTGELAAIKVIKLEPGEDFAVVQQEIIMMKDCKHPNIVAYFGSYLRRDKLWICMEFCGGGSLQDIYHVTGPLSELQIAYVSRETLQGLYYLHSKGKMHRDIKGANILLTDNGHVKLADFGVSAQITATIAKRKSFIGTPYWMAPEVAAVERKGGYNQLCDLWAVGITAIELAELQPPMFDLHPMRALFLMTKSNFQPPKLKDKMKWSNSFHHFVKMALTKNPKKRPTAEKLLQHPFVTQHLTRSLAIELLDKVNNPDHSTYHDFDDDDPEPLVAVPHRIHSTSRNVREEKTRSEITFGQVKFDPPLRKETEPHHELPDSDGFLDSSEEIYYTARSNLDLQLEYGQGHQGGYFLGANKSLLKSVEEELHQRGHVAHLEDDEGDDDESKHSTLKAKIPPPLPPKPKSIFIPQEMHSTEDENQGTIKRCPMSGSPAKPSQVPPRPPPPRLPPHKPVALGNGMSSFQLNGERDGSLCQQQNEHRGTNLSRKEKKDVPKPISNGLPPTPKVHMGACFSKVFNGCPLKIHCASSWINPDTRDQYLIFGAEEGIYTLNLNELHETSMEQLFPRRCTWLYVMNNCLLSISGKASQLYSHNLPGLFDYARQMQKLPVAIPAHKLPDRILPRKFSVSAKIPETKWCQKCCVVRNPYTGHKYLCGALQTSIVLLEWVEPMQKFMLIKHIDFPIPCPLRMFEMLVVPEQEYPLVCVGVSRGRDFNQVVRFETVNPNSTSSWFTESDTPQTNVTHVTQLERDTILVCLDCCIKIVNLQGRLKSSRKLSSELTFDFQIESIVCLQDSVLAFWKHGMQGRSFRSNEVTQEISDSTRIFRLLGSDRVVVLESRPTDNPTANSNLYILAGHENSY
Excerpt: as §1

[1] = 100 micromolar inhibitor concentration, 100 is no change
[2] = 100 micromolar inhibitor, 100 = no change

PAK2, sequence (Q13177 whole entry, species assumed): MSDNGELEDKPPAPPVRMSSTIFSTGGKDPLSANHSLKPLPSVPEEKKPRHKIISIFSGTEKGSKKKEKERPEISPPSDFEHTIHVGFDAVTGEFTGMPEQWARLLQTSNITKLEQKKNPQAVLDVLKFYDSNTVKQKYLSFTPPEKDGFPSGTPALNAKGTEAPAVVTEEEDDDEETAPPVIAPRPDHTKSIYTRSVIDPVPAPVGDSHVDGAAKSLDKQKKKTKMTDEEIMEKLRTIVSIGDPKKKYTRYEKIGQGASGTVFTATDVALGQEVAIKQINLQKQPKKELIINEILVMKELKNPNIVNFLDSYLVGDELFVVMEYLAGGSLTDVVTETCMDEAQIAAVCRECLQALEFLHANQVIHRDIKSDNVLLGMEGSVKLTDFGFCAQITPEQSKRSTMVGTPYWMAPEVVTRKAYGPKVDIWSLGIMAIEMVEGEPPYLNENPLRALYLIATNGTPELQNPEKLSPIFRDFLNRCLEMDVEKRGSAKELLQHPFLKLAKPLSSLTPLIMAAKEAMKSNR
FGF-R1, sequence (P11362 22-822, species assumed): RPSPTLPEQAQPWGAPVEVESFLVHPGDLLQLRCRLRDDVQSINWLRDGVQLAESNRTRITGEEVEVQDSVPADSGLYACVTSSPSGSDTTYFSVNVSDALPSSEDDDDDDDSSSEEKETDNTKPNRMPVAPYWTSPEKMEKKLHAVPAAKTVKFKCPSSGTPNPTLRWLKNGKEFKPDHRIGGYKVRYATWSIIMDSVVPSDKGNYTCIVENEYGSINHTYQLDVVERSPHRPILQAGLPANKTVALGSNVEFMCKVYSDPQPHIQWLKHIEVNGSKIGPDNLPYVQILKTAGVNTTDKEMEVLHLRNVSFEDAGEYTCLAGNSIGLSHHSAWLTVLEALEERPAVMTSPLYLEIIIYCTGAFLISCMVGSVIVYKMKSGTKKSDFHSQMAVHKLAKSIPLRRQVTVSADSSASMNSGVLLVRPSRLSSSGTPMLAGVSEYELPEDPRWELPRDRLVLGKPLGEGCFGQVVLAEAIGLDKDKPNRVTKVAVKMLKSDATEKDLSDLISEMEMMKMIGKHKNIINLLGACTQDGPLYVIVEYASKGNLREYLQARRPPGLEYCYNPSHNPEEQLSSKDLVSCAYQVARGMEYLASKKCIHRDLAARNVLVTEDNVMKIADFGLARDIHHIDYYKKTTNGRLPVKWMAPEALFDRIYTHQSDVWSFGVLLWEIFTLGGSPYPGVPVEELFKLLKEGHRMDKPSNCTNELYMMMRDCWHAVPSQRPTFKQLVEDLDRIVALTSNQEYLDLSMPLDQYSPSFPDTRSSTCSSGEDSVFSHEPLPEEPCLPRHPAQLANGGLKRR
MPSK1, sequence (O75716 whole entry, species assumed): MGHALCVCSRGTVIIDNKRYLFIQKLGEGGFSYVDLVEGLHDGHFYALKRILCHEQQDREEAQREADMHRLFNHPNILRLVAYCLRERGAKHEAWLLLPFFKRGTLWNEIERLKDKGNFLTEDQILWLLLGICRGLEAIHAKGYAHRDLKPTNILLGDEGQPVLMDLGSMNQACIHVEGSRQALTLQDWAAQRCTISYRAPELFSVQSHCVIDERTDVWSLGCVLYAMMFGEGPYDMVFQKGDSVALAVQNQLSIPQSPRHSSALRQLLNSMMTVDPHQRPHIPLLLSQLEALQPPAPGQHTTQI
PAK6, sequence (Q9NQU5 whole entry, species assumed): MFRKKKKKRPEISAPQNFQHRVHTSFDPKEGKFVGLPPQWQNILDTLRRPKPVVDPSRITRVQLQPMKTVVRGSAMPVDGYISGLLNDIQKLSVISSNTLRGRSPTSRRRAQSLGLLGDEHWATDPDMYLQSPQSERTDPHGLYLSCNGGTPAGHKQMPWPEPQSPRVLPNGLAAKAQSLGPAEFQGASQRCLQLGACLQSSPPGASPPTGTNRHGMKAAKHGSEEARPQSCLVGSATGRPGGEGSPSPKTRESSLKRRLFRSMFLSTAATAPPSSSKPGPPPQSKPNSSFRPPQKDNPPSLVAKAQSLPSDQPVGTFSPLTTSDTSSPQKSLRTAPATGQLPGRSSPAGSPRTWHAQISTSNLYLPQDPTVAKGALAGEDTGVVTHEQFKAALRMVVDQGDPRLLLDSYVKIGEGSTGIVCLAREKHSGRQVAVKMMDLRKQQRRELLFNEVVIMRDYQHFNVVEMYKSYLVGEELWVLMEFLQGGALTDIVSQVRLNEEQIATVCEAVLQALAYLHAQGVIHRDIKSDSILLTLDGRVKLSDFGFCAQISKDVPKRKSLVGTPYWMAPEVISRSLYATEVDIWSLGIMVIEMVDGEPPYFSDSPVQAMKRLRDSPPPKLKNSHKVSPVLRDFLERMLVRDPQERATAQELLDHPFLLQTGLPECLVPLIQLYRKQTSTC
MINK1, sequence (Q8N4C8 whole entry, species assumed): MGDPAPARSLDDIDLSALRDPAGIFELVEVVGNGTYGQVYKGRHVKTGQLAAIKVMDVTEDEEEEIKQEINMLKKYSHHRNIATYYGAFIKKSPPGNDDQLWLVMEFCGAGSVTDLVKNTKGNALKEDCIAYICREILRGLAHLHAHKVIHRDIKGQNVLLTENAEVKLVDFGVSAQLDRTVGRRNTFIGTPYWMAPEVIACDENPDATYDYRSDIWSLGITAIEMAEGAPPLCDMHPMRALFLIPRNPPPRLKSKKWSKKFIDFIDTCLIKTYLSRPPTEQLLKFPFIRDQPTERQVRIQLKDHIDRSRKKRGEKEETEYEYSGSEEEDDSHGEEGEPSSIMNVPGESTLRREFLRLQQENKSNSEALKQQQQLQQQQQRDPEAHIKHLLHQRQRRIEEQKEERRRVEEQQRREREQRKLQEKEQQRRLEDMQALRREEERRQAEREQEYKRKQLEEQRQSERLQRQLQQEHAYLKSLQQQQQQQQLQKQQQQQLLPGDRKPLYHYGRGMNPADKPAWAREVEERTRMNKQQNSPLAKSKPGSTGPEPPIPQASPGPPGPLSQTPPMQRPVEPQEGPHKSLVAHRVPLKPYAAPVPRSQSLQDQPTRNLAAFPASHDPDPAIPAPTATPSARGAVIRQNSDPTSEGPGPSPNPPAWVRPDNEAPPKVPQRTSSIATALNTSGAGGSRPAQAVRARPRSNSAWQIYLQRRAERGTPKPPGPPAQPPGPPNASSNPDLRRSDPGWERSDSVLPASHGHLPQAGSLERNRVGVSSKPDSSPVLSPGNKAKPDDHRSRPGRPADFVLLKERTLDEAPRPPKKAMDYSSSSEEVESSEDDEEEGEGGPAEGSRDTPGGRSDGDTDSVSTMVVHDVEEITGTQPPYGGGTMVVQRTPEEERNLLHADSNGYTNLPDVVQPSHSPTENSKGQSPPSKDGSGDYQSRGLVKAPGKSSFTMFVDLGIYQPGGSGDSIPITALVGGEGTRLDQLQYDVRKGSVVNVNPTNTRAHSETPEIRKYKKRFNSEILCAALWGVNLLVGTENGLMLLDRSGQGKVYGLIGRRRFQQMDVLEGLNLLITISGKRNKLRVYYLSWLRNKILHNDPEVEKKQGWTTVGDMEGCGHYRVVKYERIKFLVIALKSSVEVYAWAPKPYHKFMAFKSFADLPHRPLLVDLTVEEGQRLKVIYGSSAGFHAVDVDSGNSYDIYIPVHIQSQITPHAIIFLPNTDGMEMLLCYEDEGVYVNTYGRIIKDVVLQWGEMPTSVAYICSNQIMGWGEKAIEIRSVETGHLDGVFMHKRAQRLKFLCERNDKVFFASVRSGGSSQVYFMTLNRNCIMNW
SIK2, sequence (Q9H0K1 whole entry, species assumed): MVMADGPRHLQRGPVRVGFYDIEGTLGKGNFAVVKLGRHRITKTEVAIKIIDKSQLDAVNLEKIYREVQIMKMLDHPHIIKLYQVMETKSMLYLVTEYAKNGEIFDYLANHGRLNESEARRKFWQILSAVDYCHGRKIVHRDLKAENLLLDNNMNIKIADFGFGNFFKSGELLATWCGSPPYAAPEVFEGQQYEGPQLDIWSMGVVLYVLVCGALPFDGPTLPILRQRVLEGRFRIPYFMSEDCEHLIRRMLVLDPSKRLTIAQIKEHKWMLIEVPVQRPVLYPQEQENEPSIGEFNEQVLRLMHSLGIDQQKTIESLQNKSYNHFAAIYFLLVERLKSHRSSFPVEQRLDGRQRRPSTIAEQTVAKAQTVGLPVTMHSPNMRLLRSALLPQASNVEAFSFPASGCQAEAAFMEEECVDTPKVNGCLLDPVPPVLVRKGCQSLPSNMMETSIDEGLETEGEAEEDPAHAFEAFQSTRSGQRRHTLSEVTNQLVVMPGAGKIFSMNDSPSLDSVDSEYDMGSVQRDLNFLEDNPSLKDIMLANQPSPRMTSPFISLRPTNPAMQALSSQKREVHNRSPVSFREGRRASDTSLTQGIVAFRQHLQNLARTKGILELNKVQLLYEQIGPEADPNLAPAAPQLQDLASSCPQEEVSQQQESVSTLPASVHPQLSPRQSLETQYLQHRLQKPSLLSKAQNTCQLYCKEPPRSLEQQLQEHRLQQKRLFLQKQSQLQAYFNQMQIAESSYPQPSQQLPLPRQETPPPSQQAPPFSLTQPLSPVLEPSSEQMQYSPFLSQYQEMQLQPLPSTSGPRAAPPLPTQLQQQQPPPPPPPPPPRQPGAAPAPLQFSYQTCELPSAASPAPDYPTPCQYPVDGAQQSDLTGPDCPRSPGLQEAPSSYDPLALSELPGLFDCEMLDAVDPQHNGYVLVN
MNK2, sequence (Q9HBH9 whole entry, species assumed): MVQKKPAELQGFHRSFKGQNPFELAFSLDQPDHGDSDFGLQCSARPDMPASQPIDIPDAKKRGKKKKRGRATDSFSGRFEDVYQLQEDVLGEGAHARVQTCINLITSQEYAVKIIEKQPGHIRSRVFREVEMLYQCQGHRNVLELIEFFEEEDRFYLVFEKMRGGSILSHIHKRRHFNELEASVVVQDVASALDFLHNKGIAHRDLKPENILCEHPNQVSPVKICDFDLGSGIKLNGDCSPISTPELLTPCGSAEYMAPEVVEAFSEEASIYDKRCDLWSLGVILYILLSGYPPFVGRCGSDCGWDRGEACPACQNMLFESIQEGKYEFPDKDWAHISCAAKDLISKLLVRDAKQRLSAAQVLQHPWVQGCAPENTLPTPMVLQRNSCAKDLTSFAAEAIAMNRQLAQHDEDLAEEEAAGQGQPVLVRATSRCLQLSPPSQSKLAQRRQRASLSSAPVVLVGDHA

Row | SMILES | residual kinase activity, CDK9-Cyclin T1 (CDK9-Cyclin T1; [1]) | residual kinase activity, FGF-R1 (FGF-R1; [1]) | residual kinase activity, IKKe (IKKe; [1]) | residual kinase activity, IRR (IRR; [1]) | residual kinase activity, BRK (BRK; [1]) | residual kinase activity, SIK2 (SIK2; [1]) | residual kinase activity, MNK2 (MNK2; [1]) | residual kinase activity, MINK1 (MINK1; [1]) | residual kinase activity, TESK1 (TESK1; [1]) | residual kinase activity, OSR1 (OSR1; [1]) | residual kinase activity, HIPK1 (HIPK1; [1]) | residual kinase activity, PAK6 (PAK6; [1]) | residual kinase activity, AMPK (AMPK; [1]) | residual kinase activity, MPSK1 (MPSK1; [1]) | residual kinase activity, PAK2 (PAK2; [1]) | residual kinase activity, MAP4K3 (MAP4K3; [1]) | also measured
1 | O=C(Nc1nc2ccc(O)cc2s1)c1ccncc1 [Compound 08-42] | 66 | 54 | 47 | 71 | 43 | 82 | 33 | 37 | 73 | 72 | 44 | 93 | 61 | 77 | 108 | 48 | 
2 | CC(=O)Nc1cccc(NC(=O)c2nc3ccc(O)cc3s2)c1 [Compound 03-07, N-(3-acetamidophenyl)-6-hydroxybenzo[d]thiazole-2-carboxamide] |  |  |  |  |  |  |  |  |  |  |  |  |  |  |  |  | remaining activity at 100 µM (CDK9-Cyclin T1; [2]): 76%; remaining activity at 100 µM (FGF-R1; [2]): 66%; remaining activity at 100 µM (IKKe; [2]): 73%; remaining activity at 100 µM (IRR; [2]): 75%; remaining activity at 100 µM (BRK; [2]): 80%; remaining activity at 100 µM (SIK2; [2]): 28%; remaining activity at 100 µM (MNK2; [2]): 50%; remaining activity at 100 µM (MINK1; [2]): 18%; remaining activity at 100 µM (TESK1; [2]): 101%; remaining activity at 100 µM (OSR1; [2]): 87%; remaining activity at 100 µM (HIPK1; [2]): 90%; remaining activity at 100 µM (PAK6; [2]): 106%; residual kinase activity, AMPK (AMPK; [2]): 76; remaining activity at 100 µM (MPSK1; [2]): 108%; remaining activity at 100 µM (PAK2; [2]): 90%; remaining activity at 100 µM (MAP4K3; [2]): 63%
3 | O=C(Nc1nc2cc(O)ccc2s1)c1ccccn1 [Compound 03-13] | 93 | 81 | 63 | 78 | 94 | 96 | 66 | 31 | 93 | 97 | 76 | 99 | 80 | 102 | 119 | 67 | 
4 | O=C(Nc1nc2ccc(O)cc2s1)c1ccccn1 [Compound 03-12] | 76 | 16 | 78 | 82 | 61 | 77 | 66 | 48 | 84 | 59 | 47 | 101 | 86 | 90 | 104 | 54 | 
5 | O=C(Nc1nc2ccc(O)cc2s1)c1cccnc1 [Compound 08-44] | 43 | 56 | 50 | 45 | 21 | 68 | 36 | 19 | 70 | 51 | 43 | 94 | 48 | 81 | 85 | 56 | 
6 | CC(=O)Nc1nc2cc(C(F)(F)F)ccc2s1 [Compound 03-73] |  |  |  |  |  |  |  |  |  |  |  |  | 75 |  |  |  | remaining activity at 100 µM (CDK9-Cyclin T1; [1]): 97%; remaining activity at 100 µM (FGF-R1; [1]): 109%; remaining activity at 100 µM (IKKe; [1]): 93%; remaining activity at 100 µM (IRR; [1]): 61%; remaining activity at 100 µM (BRK; [1]): 106%; remaining activity at 100 µM (SIK2; [1]): 91%; remaining activity at 100 µM (MNK2; [1]): 96%; remaining activity at 100 µM (MINK1; [1]): 77%; remaining activity at 100 µM (TESK1; [1]): 115%; remaining activity at 100 µM (OSR1; [1]): 113%; remaining activity at 100 µM (HIPK1; [1]): 74%; remaining activity at 100 µM (PAK6; [1]): 11%; remaining activity at 100 µM (MPSK1; [1]): 97%; remaining activity at 100 µM (PAK2; [1]): 85%; remaining activity at 100 µM (MAP4K3; [1]): 63%
